Test results as given in US9422283B2, “Salts and polymorphs of a substituted imidazopyridinyl-aminopyridine compound” (ArQule, Inc., priority 2014, dated 2016).
≈ marks a conversion by molar mass, not a printed value. Entries after “also recorded” stand apart in the source; their conditions may differ. Where a name gives a salt, the structure may show the parent alone. Read-outs that look alike come from different tables or passages of the source.

Tests used:
Format in all cases: physicochemical
[1] = Solvent solubility screen by solvent addition technique; details: for observation in solubility screen: 40° C.; for solubility: 40 °C, thermodynamic from solid, amorphous input, read-out: Solubility (mg/mL) at 40° C.
Experimental: The amorphous form of Compound A bis-mesylate salt was used as the input material for the solubility screen. Solubility values were estimated by a solvent addition technique in order to provide approximate values for generating slurries during later experiments. Approximately 15 mg of amorphous material was weighed out into 24 vials. Each solvent was added to the appropriate vial in 10 aliquots of 10 μl, 5 aliquots of 20 μl, 3 aliquots of 100 μl and 1 aliquot of 500 μl or until the material dissolved. In between additions, the sample was heated to 40° C. To vials which already contained 1000 μl of solvent but still had observable solid material, a further aliquot of 1000 μl of solvent was added. If 2000 μl of solvent was added without dissolution of the solid, solubility was calculated to be below this point.

[2] = Stability testing of bis-mesylate forms for 1 week (XRPD, HPLC purity)
Experimental: Form A, Form B, Form C, Form D, Form E and Form I were exposed to environments of 40° C./75% RH, ambient light (about 22° C.) and elevated temperature (80° C.) for 1 week to determine the stability. The resulting solids were analyzed by XRPD to establish if any form changes had occurred and by HPLC to determine purity.

[3] = Dynamic Vapour Sorption (DVS)
Experimental: Approximately 10 mg of sample was placed into a mesh vapour sorption balance pan and loaded into a DVS-1 dynamic vapour sorption balance by Surface Measurement Systems. The sample was subjected to a ramping profile of 0-90%, 90-0% relative humidity (RH) at 10% increments for anhydrous samples and 30-90%, 90-0%, 0-90%, 90-0% for hydrated samples, maintaining the sample at each step until a stable weight had been achieved (99.5% step completion). The weight changes during the sorption/desorption cycles were plotted, allowing the hygroscopic nature of the sample to be determined.

[4] = Aqueous solubility studies of bis-mesylate forms (slurry in deionised water, HPLC, XRPD); details: about 24 hours; for polymorphic form after slurrying in deionised water (XRPD): ambient temperature
Experimental: Purity and concentration analyses were carried out using the following method:
• Pan Number 186003045 Column Temperature: 25° C. Autosampler Temperature: 5° C. Detection: 226 nm Mobile Phase A: 95:5:0.1% Water:Methanol:TFA Mobile Phase B: 95:5:0.1% Methanol:Water:TFA Gradient: See table below for conditions Flow Rate: 1.0 mL/minute Injection Volume: 10 μl Analysis Time: 36 minutes Re-equilibration Time: 4 minutes Data Collection time: 36 minutes Needle Wash: 100% Methanol
Slurries of Form A, Form B, Form C, Form D, Form E and Form I were created in deionised water and shaken for about 24 hours at ambient temperature (about 22° C.). The resulting solutions were then analyzed by HPLC and the aqueous solubility was determined. The remaining solids were analyzed by XRPD to determine if any form changes had occurred during slurrying.

With `Nc1ncccc1-c1nc2ccc(-c3ccccc3)nc2n1-c1ccc(C2(N)CCC2)cc1` [Compound A bis-mesylate salt, 3-(3-(4-(1-aminocyclobutyl)phenyl)-5-phenyl-3H-imidazo[4,5-b]pyridin-2-yl)pyridin-2-amine] the “observation in solubility screen” value ([1]; 1,4-Dioxane) was “Colourless solution”, the “observation in solubility screen” value ([1]; 2-Methyl THF) was “Colourless solution” and the “observation in solubility screen” value ([1]; 2-Propanol) was “Good solubility”. The “observation in solubility screen” value ([1]; 2-Propanol:water (50:50)) was “Good solubility”, the solubility ([1]; aqueous with cosolvent or surfactant or cyclodextrin, 2-Propanol:water (50:50)) was roughly 400 mg/mL and the solubility ([1]; organic solvent or mixture, 1,4-Dioxane) was less than 8 mg/mL. For the same compound, the solubility ([1]; organic solvent or mixture, 1-Butanol) was less than 8 mg/mL, the solubility ([1]; organic solvent or mixture, 2-Ethoxyethanol) was less than 8 mg/mL and the solubility ([1]; organic solvent or mixture, 2-Methyl THF) was less than 8 mg/mL. The solubility ([1]; organic solvent or mixture, 2-Propanol) was roughly 25 mg/mL, the solubility ([1]; organic solvent or mixture, Acetone:water (90:10)) was roughly 16 mg/mL and the solubility ([1]; organic solvent or mixture, Acetone) was less than 8 mg/mL. For the same compound, the solubility ([1]; organic solvent or mixture, Acetonitrile) was less than 8 mg/mL, the solubility ([1]; organic solvent or mixture, Cyclohexane) was less than 8 mg/mL and the solubility ([1]; organic solvent or mixture, Dichloromethane) was less than 8 mg/mL. It also gave a solubility ([1]; organic solvent or mixture, Diisopropyl ether) of less than 8 mg/mL, a solubility ([1]; organic solvent or mixture, Dimethylsulfoxide) of roughly 126 mg/mL and a solubility ([1]; organic solvent or mixture, Ethanol) of less than 8 mg/mL. It also gave a solubility ([1]; organic solvent or mixture, Ethyl acetate) of less than 8 mg/mL, a solubility ([1]; organic solvent or mixture, Heptane) of less than 8 mg/mL and a solubility ([1]; organic solvent or mixture, Isopropyl acetate) of less than 8 mg/mL. The solubility ([1]; organic solvent or mixture, Methanol) was roughly 40 mg/mL, the solubility ([1]; organic solvent or mixture, Methylethyl ketone) was less than 8 mg/mL and the solubility ([1]; organic solvent or mixture, Methylisobutyl ketone) was less than 8 mg/mL. The solubility ([1]; organic solvent or mixture, Tetrahydrofuran) was less than 8 mg/mL, the solubility ([1]; organic solvent or mixture, Toluene) was less than 8 mg/mL and the solubility ([1]; organic solvent or mixture, tert-Butylmethyl ether) was less than 8 mg/mL. The solubility ([1]; Water) was roughly 769 mg/mL, the “observation in solubility screen” value ([1]; Acetone:water (90:10)) was “Good solubility” and the “observation in solubility screen” value ([1]; Cyclohexane) was “Colourless solution”. The “observation in solubility screen” value ([1]; Dichloromethane) was “Colourless solution”, the “observation in solubility screen” value ([1]; Diisopropyl ether) was “Colourless solution” and the “observation in solubility screen” value ([1]; Dimethylsulfoxide) was “Good solubility”. The “observation in solubility screen” value ([1]; Heptane) was “Colourless solution”, the “observation in solubility screen” value ([1]; Isopropyl acetate) was “Colourless solution” and the “observation in solubility screen” value ([1]; Methanol) was “Good solubility”. For the same compound, the “observation in solubility screen” value ([1]; Methylethyl ketone) was “Colourless solution”, the “observation in solubility screen” value ([1]; Methylisobutyl ketone) was “Colourless solution” and the “observation in solubility screen” value ([1]; Toluene) was “Colourless solution”. The “observation in solubility screen” value ([1]; Water) was “Good solubility” and the “observation in solubility screen” value ([1]; tert-Butylmethyl ether) was “Colourless solution”.
With `Nc1ncccc1-c1nc2ccc(-c3ccccc3)nc2n1-c1ccc(C2(N)CCC2)cc1` [Form A, 3-(3-(4-(1-aminocyclobutyl)phenyl)-5-phenyl-3H-imidazo[4,5-b]pyridin-2-yl)pyridin-2-amine] the “HPLC purity after stability test” value ([2]; 40° C./75% RH) was “about 99.8%”, the “polymorphic form after stability test (XRPD)” value ([2]; 40° C./75% RH) was “No change” and the “HPLC purity after stability test” value ([2]; 80° C.) was “about 99.8%”. The “polymorphic form after stability test (XRPD)” value ([2]; 80° C.) was “No change”, the “polymorphic form after stability test (XRPD)” value ([2]; ambient light (about 22° C.)) was “No change” and the “HPLC purity after stability test” value ([2]; ambient temperature) was “about 99.7%”. The “DVS (summary Table 21)” value [3] was “Moderately”, the “DVS desorption behaviour / hysteresis” value [3] was “No significant hysteresis” and the “hygroscopicity (DVS)” value [3] was “moderate hygroscopicity”. The “polymorphic form after DVS analysis (XRPD)” value [3] was “consistent with Form A; also recorded: Form A post”, the DVS water uptake ([3]; up to 70% RH) was “about 2.4%” and the “polymorphic form after slurrying in deionised water (XRPD)” value (from here on “polymorphic form after slurrying”) [4] was “converted to Form E”. It also gave a solubility at 24 h ([4]; deionised water, 22 °C, water, thermodynamic from solid, deionised water, ambient temperature (about 22° C.), read-out: aqueous solubility (HPLC concentration analysis)) of roughly 383 mg/mL (≈ 886 mM).
With `Nc1ncccc1-c1nc2ccc(-c3ccccc3)nc2n1-c1ccc(C2(N)CCC2)cc1` [Form B, 3-(3-(4-(1-aminocyclobutyl)phenyl)-5-phenyl-3H-imidazo[4,5-b]pyridin-2-yl)pyridin-2-amine] the “HPLC purity after stability test” value ([2]; 40° C./75% RH) was “about 99.8%”, the “polymorphic form after stability test (XRPD)” value ([2]; 40° C./75% RH) was “converted to Form J” and the “HPLC purity after stability test” value ([2]; 80° C.) was “about 99.8%”. The “polymorphic form after stability test (XRPD)” value ([2]; 80° C.) was “Form I”, the “polymorphic form after stability test (XRPD)” value ([2]; ambient light (about 22° C.)) was “remained unchanged” and the “HPLC purity after stability test” value ([2]; ambient temperature) was “about 99.7%”. For the same compound, the “DVS (summary Table 21)” value [3] was “Gradual uptake”, the “DVS desorption behaviour / hysteresis” value [3] was “gradual loss from 90% down to 0% RH” and the “polymorphic form after slurrying” value [4] was “converted to Form E”.
With `Nc1ncccc1-c1nc2ccc(-c3ccccc3)nc2n1-c1ccc(C2(N)CCC2)cc1` [Form C, 3-(3-(4-(1-aminocyclobutyl)phenyl)-5-phenyl-3H-imidazo[4,5-b]pyridin-2-yl)pyridin-2-amine] the “HPLC purity after stability test” value ([2]; 40° C./75% RH) was “about 99.9%”, the “polymorphic form after stability test (XRPD)” value ([2]; 40° C./75% RH) was “No change” and the “HPLC purity after stability test” value ([2]; 80° C.) was “about 99.9%”. The “polymorphic form after stability test (XRPD)” value ([2]; 80° C.) was “No change”, the “polymorphic form after stability test (XRPD)” value ([2]; ambient light (about 22° C.)) was “No change” and the “HPLC purity after stability test” value ([2]; ambient temperature) was “about 99.9%”. For the same compound, the “DVS (summary Table 21)” value [3] was “Non-hygroscopic”, the “hygroscopicity (DVS)” value [3] was “non-hygroscopic” and the “polymorphic form after DVS analysis (XRPD)” value [3] was “consistent with Form C; also recorded: Form C post”. The “DVS total water uptake” value ([3]; up to 90% RH) was “about 0.54%” and the “polymorphic form after slurrying” value [4] was “converted to Form E”.
